Results taken from patent US20140190726A1, “MIXTURE OF DECAFLUORO-2-METHYLBUTAN-3-ONE AND A CARRIER GAS AS A MEDIUM FOR ELECTRICAL INSULATION AND/OR FOR ELECTRIC ARC EXTINCTION IN MEDIUM-VOLTAGE” (SCHNEIDER ELECTRIC INDUSTRIES SAS, priority 2011, published 2014).

How the values were obtained:
[1] = Saturation vapour pressure of C5K at minimum service temperatures; format: physicochemical; details: for PC5K pressure equivalent at 20° C. to the saturation vapour pressure: formula (II)
Description: Table I below indicates the saturation vapour pressures, noted PVSC5K, which C5K has at the temperatures of 0, −5, −10, −15, −20, −25, −30, −35 and −40° C., which are the minimum service temperatures typically found for medium- and high-voltage electrical devices.
It also indicates the pressure values, noted PC5K, which correspond at 20° C. to these saturation vapour pressures, and which are obtained by applying formula (II) above.

[2] = humans and animals; cited from earlier work

Compound | PVSC5K saturation vapour pressure ([1]; 0° C.) [kPa] | PC5K pressure equivalent at 20° C. to the saturation vapour pressure ([1]; 0° C.) [kPa] | PVSC5K saturation vapour pressure ([1]; −5° C.) [kPa] | PC5K pressure equivalent at 20° C. to the saturation vapour pressure ([1]; −5° C.) [kPa] | PVSC5K saturation vapour pressure ([1]; −10° C.) [kPa] | PC5K pressure equivalent at 20° C. to the saturation vapour pressure ([1]; −10° C.) [kPa] | PVSC5K saturation vapour pressure ([1]; −15° C.) [kPa] | PC5K pressure equivalent at 20° C. to the saturation vapour pressure ([1]; −15° C.) [kPa] | PVSC5K saturation vapour pressure ([1]; −20° C.) [kPa] | PC5K pressure equivalent at 20° C. to the saturation vapour pressure ([1]; −20° C.) [kPa] | PVSC5K saturation vapour pressure ([1]; −25° C.) [kPa] | PC5K pressure equivalent at 20° C. to the saturation vapour pressure ([1]; −25° C.) [kPa] | PVSC5K saturation vapour pressure ([1]; −30° C.) [kPa] | PC5K pressure equivalent at 20° C. to the saturation vapour pressure ([1]; −30° C.) [kPa] | PVSC5K saturation vapour pressure ([1]; −35° C.) [kPa] | PC5K pressure equivalent at 20° C. to the saturation vapour pressure ([1]; −35° C.) [kPa] | PVSC5K saturation vapour pressure ([1]; −40° C.) [kPa] | PC5K pressure equivalent at 20° C. to the saturation vapour pressure ([1]; −40° C.) [kPa] | Toxicity [2]
O=C(C(F)(F)F)C(F)(C(F)(F)F)C(F)(F)F [C5K, decafluoro-2-methylbutan-3-one] | 41.3 | 44.3 | 33.6 | 36.7 | 27.1 | 30.2 | 21.7 | 24.7 | 17.3 | 20.0 | 13.6 | 16.0 | 10.6 | 12.7 | 8.1 | 10.0 | 6.2 | 7.8 | 
FS(F)(F)(F)(F)F [SF6, sulphur hexafluoride] |  |  |  |  |  |  |  |  |  |  |  |  |  |  |  |  |  |  | non-toxic for humans and animals
